In US8278345B2, “Inhibitors of glutaminyl cyclase” (Probiodrug AG, priority 2006, dated 2012):
Like-named read-outs stand apart in the source and are kept apart here.

Legend:
[1] = molecular target: hQC (Homo sapiens, UniProt Q16769); assay: Inhibitor assay for glutaminyl cyclase activity (fluorometric, H-Gln-βNA / H-Gln-AMC); format: biochemical
Procedure, shortened: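 Coupled fluorometric assay at 30 °C with pyroglutamyl aminopeptidase, in Tris/HCl pH 8.0 with EDTA, substrate H-Gln-βNA (0.2 mM; ex/em 320/410 nm) or H-Gln-AMC (ex/em 380/460 nm), initiated by QC. Screening: 4 mM inhibitor, substrate at 1 KM; Ki from progress curves fitted to competitive inhibition.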

[2] = compound from preparative synthesis, purified, read-out: IC50 hQC

hQC, sequence (Q16769 29-361): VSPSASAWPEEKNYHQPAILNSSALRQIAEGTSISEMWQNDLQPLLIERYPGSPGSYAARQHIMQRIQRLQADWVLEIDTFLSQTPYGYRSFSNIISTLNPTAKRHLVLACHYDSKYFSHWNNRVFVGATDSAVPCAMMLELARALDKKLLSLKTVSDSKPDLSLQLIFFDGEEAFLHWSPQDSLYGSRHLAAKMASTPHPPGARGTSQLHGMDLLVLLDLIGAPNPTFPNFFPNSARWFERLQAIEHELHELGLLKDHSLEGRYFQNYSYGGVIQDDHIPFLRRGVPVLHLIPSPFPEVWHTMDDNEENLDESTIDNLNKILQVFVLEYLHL

melting point | IC50 [1, 2] | IC50 ([1]; read-out: IC50) | Compound
155 °C | 1.35 nM | 4 nM | O=C(C1=C(O)C(=O)N(c2ccc3[nH]cnc3c2)C1c1ccc2cccc(O)c2n1)C1CC1 (centres unmarked) [Compound 446, 1-(1H-Benzoimidazol-5-yl)-4-cyclopropanecarbonyl-3-hydroxy-5-(8-hydroxy-quinolin-2-yl)-1,5-dihydro-pyrrol-2-one]
175 °C | 28.3 nM | 4 nM | CC(=O)C1=C(O)C(=O)N(c2ccc3[nH]cnc3c2)C1c1ccc2nonc2c1 (centres unmarked) [Compound 403, 4-Acetyl-1-(1H-benzoimidazol-5-yl)-5-benzo[c][1,2,5]oxadiazol-5-yl-3-hydroxy-1,5-dihydro-pyrrol-2-one]
270 °C (dec.) | 0.7 nM | 4 nM | O=C(C1=C(O)C(=O)N(c2ccc3[nH]cnc3c2)C1c1ccc2nsnc2c1)C1CC1 (centres unmarked) [Compound 287, 1-(1H-Benzoimidazol-5-yl)-5-benzo[c][1,2,5]thiadiazol-5-yl-4-cyclopropanecarbonyl-3-hydroxy-1,5-dihydro-pyrrol-2-one]
150 °C | 2.6 nM | 4 nM | O=C1C(O)=C(c2ccccc2)C(c2cc(F)cc(F)c2F)N1c1ccc2[nH]cnc2c1 (centres unmarked) [Compound 445, 1-(1H-Benzoimidazol-5-yl)-3-hydroxy-4-phenyl-5-(2,3,5-trifluoro-phenyl)-1,5-dihydro-pyrrol-2-one]
294 °C | 1.2 nM | 4 nM | CCCC(=O)C1=C(O)C(=O)N(c2ccc3[nH]cnc3c2)C1c1ccc(-c2ccccn2)cc1 (centres unmarked) [Compound 387, 1-(1H-Benzoimidazol-5-yl)-4-butyryl-3-hydroxy-5-(4-pyridin-2-yl-phenyl)-1,5-dihydro-pyrrol-2-one]
174 °C | 5.8 nM | 4 nM | CC(=O)C1=C(O)C(=O)N(c2ccc3[nH]cnc3c2)C1c1ccc2cccc(O)c2n1 (centres unmarked) [Compound 277, 4-Acetyl-1-(1H-benzoimidazol-5-yl)-3-hydroxy-5-(8-hydroxy-quinolin-2-yl)-1,5-dihydro-pyrrol-2-one]
266 °C | 246 nM | 40 nM | CCCC(=O)C1=C(O)C(=O)N(c2ccc3[nH]cnc3c2)C1c1ccc2nonc2c1 (centres unmarked) [Compound 421, 1-(1H-Benzoimidazol-5-yl)-5-benzo[c][1,2,5]oxadiazol-5-yl-4-butyryl-3-hydroxy-1,5-dihydro-pyrrol-2-one]
– | – | 40 nM | O=C1C(O)=C(c2c[nH]c3ccccc23)C(c2ccccc2O)N1CCCn1ccnc1 (centres unmarked) [Compound 122, 3-Hydroxy-5-(2-hydroxy-phenyl)-1-(3-imidazol-1-yl-propyl)-4-(1H-indol-3-yl)-1,5-dihydro-pyrrol-2-one]
– | – | 760 nM | Cc1cccc(C2C(c3c[nH]c4ccccc34)=C(O)C(=O)N2c2ccc3[nH]cnc3c2)n1 (centres unmarked) [Compound 385, 1-(1H-Benzoimidazol-5-yl)-3-hydroxy-4-(1H-indol-3-yl)-5-(6-methyl-pyridin-2-yl)-1,5-dihydro-pyrrol-2-one]
– | – | 9490 nM | Cc1cccc(C2C(C(C)C)=C(O)C(=O)N2c2ccc3[nH]cnc3c2)n1 (centres unmarked) [Compound 430, 1-(1H-Benzoimidazol-5-yl)-3-hydroxy-4-isopropyl-5-(6-methyl-pyridin-2-yl)-1,5-dihydro-pyrrol-2-one]
– | – | 2200 nM | CCCC(=O)C1=C(O)C(=O)N(c2ccc3[nH]cnc3c2)C1c1nccs1 (centres unmarked) [Compound 254, 1-(1H-Benzoimidazol-5-yl)-4-butyryl-3-hydroxy-5-thiazol-2-yl-1,5-dihydro-pyrrol-2-one]
– | – | 3100 nM | CCCCCC1=C(O)C(=O)N(CCCn2ccnc2)C1c1c(O)ccc2ccccc12 (centres unmarked) [Compound 207, 3-Hydroxy-5-(2-hydroxy-naphthalen-1-yl)-1-(3-imidazol-1-yl-propyl)-4-pentyl-1,5-dihydro-pyrrol-2-one]
